Measured values published in patent publication US9540343B2 (Gilead Sciences, Inc., priority 2011, dated 2017).

Assays:
in vitro = conditions: human, uninfected MT-4 cells, CC50 (nM), same protocol as Test A, CellTiter-Glo
How it was run: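 Cytoprotection read-out: CellTiter-Glo chemiluminescence after 5 days at 37 °C of HIV-IIIb-infected MT-4 cells (m.o.i. 0.003) with compound in 10-point 3-fold dilutions, quadruplicate, 10% FBS. Cytotoxicity (CC50) measured identically without virus.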

HIV-IIIb = test: Test A: Antiviral assay in MT4 cells; format: cell-based, HIV-1; conditions: Human immunodeficiency virus 1, IIIB, MT4, 120 h, read-out: % inhibition at 2 μM, percent inhibition of virus-induced cell killing, from dose response curve at 2 uM drug; MT-4 cells infected with HIV-IIIb, 5 days, CellTiter-Glo

| Compound | CC50 at 5 days (in vitro) [nM] | inhibition at 2 µM (HIV-IIIb) [%] |
| --- | --- | --- |
| COc1ccc(-c2cccnc2[C@H](Cc2cc(F)cc(F)c2)NC(=O)Cc2c[nH]c3ccc(F)cc23)cn1 [Example 64, (S)—N-(2-(3,5-difluorophenyl)-1-(6′-methoxy-3,3′-bipyridin-2-yl)ethyl)-2-(5-fluoro-1H-indol-3-yl)acetamide] | 21100 | 88 |
| NC(=O)c1cccc(-c2cccnc2[C@H](Cc2cc(F)cc(F)c2)NC(=O)Cn2ncc3ccccc32)c1 [Example 108, (S)-3-(2-(1-(2-(1H-indazol-1-yl)acetamido)-2-(3,5-difluorophenyl)ethyl)pyridin-3-yl)benzamide] | > 53000 | 13 |
| O=C(Cc1c[nH]c2ccc(F)cc12)NC(Cc1cc(F)cc(F)c1)c1nc[nH]c(=O)c1-c1ccc(Cl)cc1 (stereo not drawn) [Example 328, N-(1-(5-(4-chlorophenyl)-6-oxo-1,6-dihydropyrimidin-4-yl)-2-(3,5-difluorophenyl)ethyl)-2-(5-fluoro-1H-indol-3-yl)acetamide] | 10000 | 0 |
| O=C(Cn1nc(C(F)F)c2c1C(F)(F)C1CC21)N[C@@H](Cc1cc(F)cc(F)c1)c1ncncc1-c1cccc2cnccc12 (stereo partly drawn) [Example 185C, 2-(3-(difluoromethyl)-5,5-difluoro-3b,4,4a,5-tetrahydro-1H-cyclopropa[3,4]cyclopenta[1,2-c]pyrazol-1-yl)-N—((S)-2-(3,5-difluorophenyl)-1-(5-(isoquinolin-5-yl)pyrimidin-4-yl)ethyl)acetamide] | 26500 | 94 |
| NC(=O)c1cc(-c2cccnc2[C@H](Cc2cc(F)cc(F)c2)NC(=O)Cn2nc(C(F)F)c3c2C2CC(C3)C2)ccc1F [Example 87, (S)-5-(2-(2-(3,5-difluorophenyl)-1-(2-(4,5,6,7-tetrahydro-3-difluoromethyl-5,7-(methano)indazol-1-yl)acetamido)ethyl)pyridin-3-yl)-2-fluorobenzamide] | 21600 | 101 |
| Cc1ccccc1-c1cccnc1[C@H](Cc1cc(F)cc(F)c1)NC(=O)Cc1c[nH]c2ccc(F)cc12 [Example 109, (S)—N-(2-(3,5-difluorophenyl)-1-(3-o-tolylpyridin-2-yl)ethyl)-2-(5-fluoro-1H-indol-3-yl)acetamide] | 9080 | 50 |
| NC(=O)c1cc(-c2cccnc2[C@H](Cc2cc(F)cc(F)c2)NC(=O)Cn2nc3c(c2C(F)(F)F)C(=O)C2CC32)ccc1F (stereo partly drawn) [Example 346D, 5-(2-((1S)-2-(3,5-difluorophenyl)-1-(2-(4-oxo-3-(trifluoromethyl)-4,4-a,5,5a-tetrahydro-2H-cyclopropa[4,5]cyclopenta[1,2-c]pyrazol-2-yl)acetamido)ethyl)pyridin-3-yl)-2-fluorobenzamide] | 39000 | 1 |
| NC(=O)c1cc(-c2cccnc2[C@H](Cc2cc(F)cc(F)c2)NC(=O)Cn2nc(C(F)(F)F)c3c2CCC(=O)C3)ccc1F [Example 446, (S)-5-(2-(2-(3,5-difluorophenyl)-1-(2-(5-oxo-3-(trifluoromethyl)-4,5,6,7-tetrahydro-1H-indazol-1-yl)acetamido)ethyl)pyridin-3-yl)-2-fluorobenzamide] | > 53200 | 79 |
| Cc1nn(CC(=O)N[C@@H](Cc2cc(F)cc(F)c2)c2ncccc2-c2cccc(C(N)=O)c2)c(C)c1C [Example 506, (S)-3-(2-(2-(3,5-difluorophenyl)-1-(2-(3,4,5-trimethyl-1H-pyrazol-1-yl)acetamido)ethyl)pyridin-3-yl)benzamide] | > 53000 | 32 |
| NC(=O)c1cc(-c2cccnc2[C@H](Cc2cc(F)cc(F)c2)NC(=O)Cc2n[nH]c3ccc(C(F)(F)F)cc23)ccc1F [Example 141G, (S)-5-(2-(2-(3,5-difluorophenyl)-1-(2-(5-(trifluoromethyl)-1H-indazol-3-yl)acetamido)ethyl)pyridin-3-yl)-2-fluorobenzamide] | 21800 | 4 |
| Cc1ccc2ccn(CC(=O)N[C@@H](Cc3cc(F)cc(F)c3)c3ncccc3-c3ccc(F)c(C(N)=O)c3)c2c1 [Example 545, (S)-5-(2-(2-(3,5-difluorophenyl)-1-(2-(6-methyl-1H-indol-1-yl)acetamido)ethyl)pyridin-3-yl)-2-fluorobenzamide] | 15900 | 37 |
| NC(=O)c1cc(-c2cccnc2[C@H](Cc2cc(F)cc(F)c2)NC(=O)Cn2nc(C(F)F)c3c2C(=O)C2CC32)ccc1F (stereo partly drawn) [Example 233B, 5-(2-((1S)-1-(2-(3-(difluoromethyl)-5-oxo-3b,4,4a,5-tetrahydro-1H-cyclopropa[3,4]cyclopenta[1,2-c]pyrazol-1-yl)acetamido)-2-(3,5-difluorophenyl)ethyl)pyridin-3-yl)-2-fluorobenzamide] | 32200 | 5 |
| CC(C)(C)OC(=O)NCc1ccc2[nH]cc(CC(=O)N[C@@H](Cc3cc(F)cc(F)c3)c3ncccc3-c3ccc(Cl)cc3)c2c1 [Example 557, (S)-tert-butyl (3-(2-(1-(3-(4-chlorophenyl)pyridin-2-yl)-2-(3,5-difluorophenyl)ethylamino)-2-oxoethyl)-1H-indol-5-yl)methylcarbamate] | 7860 | 73 |
| CC1(C)CC(=O)c2c(C(F)(F)F)nn(CC(=O)N[C@@H](Cc3cc(F)cc(F)c3)c3ncccc3-c3ccc(F)c(C(N)=O)c3)c2C1 [Example 369, (S)-5-(2-(2-(3,5-difluorophenyl)-1-(2-(6,6-dimethyl-4-oxo-3-(trifluoromethyl)-4,5,6,7-tetrahydro-1H-indazol-1-yl)acetamido)ethyl)pyridin-3-yl)-2-fluorobenzamide] | > 53000 | 5 |
| Cc1cc2ncn(CC(=O)N[C@@H](Cc3cc(F)cc(F)c3)c3ncccc3-c3cccc(C(N)=O)c3)c2cc1C [Example 278, (S)-3-(2-(2-(3,5-difluorophenyl)-1-(2-(5,6-dimethyl-1H-benzo[d]imidazol-1-yl)acetamido)ethyl)pyridin-3-yl)benzamide] | 8530 | 121 |
| NC(=O)c1cc(-c2cccnc2[C@H](Cc2cc(F)cc(F)c2)NC(=O)Cn2nc(C(F)(F)F)c3c2CCC3O)ccc1F (stereo partly drawn) [Example 525, 5-(2-((1S)-2-(3,5-difluorophenyl)-1-(2-(4-hydroxy-3-(trifluoromethyl)-5,6-dihydrocyclopenta[c]pyrazol-1(4H)-yl)acetamido)ethyl)pyridin-3-yl)-2-fluorobenzamide] | > 53200 | 83 |
| Cc1cc2[nH]cc(CC(=O)N[C@@H](Cc3cc(F)cc(F)c3)c3ncccc3-c3cccc(C(N)=O)c3)c2[nH]c1=O [Example 354, (S)-3-(2-(2-(3,5-difluorophenyl)-1-(2-(6-methyl-5-oxo-4,5-dihydro-1H-pyrrolo[3,2-b]pyridin-3-yl)acetamido)ethyl)pyridin-3-yl)benzamide] | > 53000 | 82 |
| NC(=O)c1cc(-c2cccnc2[C@H](Cc2cc(F)cc(F)c2)NC(=O)[C@@H]2CCCN2)ccc1F [Example 175, (S)—N—((S)-1-(3-(3-carbamoyl-4-fluorophenyl)pyridin-2-yl)-2-(3,5-difluorophenyl)ethyl)pyrrolidine-2-carboxamide] | > 53000 | 1 |
| NC(=O)c1cc(-c2cccnc2[C@H](Cc2cc(F)cc(F)c2)NC(=O)Cn2nc(C(F)(F)F)c3c2CCCC32CC2)ccc1F [Example 277B, (S)-5-(2-(2-(3,5-difluorophenyl)-1-(2-(3′-(trifluoromethyl)-6′,7′-dihydrospiro[cyclopropane-1,4′-indazole]-1′(5′H)-yl)acetamido)ethyl)pyridin-3-yl)-2-fluorobenzamide] | 19300 | 96 |
| NC(=O)c1cc(-c2cccnc2[C@H](Cc2cc(F)cc(F)c2)NC(=O)Cn2ccc3ccc(Cl)cc32)ccc1F [Example 494, (S)-5-(2-(1-(2-(6-chloro-1H-indol-1-yl)acetamido)-2-(3,5-difluorophenyl)ethyl)pyridin-3-yl)-2-fluorobenzamide] | 10400 | 17 |
| NC(=O)c1cc(-c2cccnc2[C@H](Cc2cc(F)cc(F)c2)NC(=O)Cn2nc(C(F)(F)F)c3c2CSC3)ccc1F [Example 189D, (S)-5-(2-(2-(3,5-difluorophenyl)-1-(2-(3-(trifluoromethyl)-4,6-dihydro-1H-thieno[3,4-c]pyrazol-1-yl)acetamido)ethyl)pyridin-3-yl)-2-fluorobenzamide] | 23300 | 48 |
| COc1ccc2cccc(CC(=O)N[C@@H](Cc3cc(F)cc(F)c3)c3ncccc3-c3ccc(F)c(C#N)c3)c2c1 [Example 373, (S)—N-(1-(3-(3-cyano-4-fluorophenyl)pyridin-2-yl)-2-(3,5-difluorophenyl)ethyl)-2-(7-methoxynaphthalen-1-yl)acetamide] | 8140 | 0 |
| CNC(=O)c1cccc(-c2cccnc2[C@H](Cc2cc(F)cc(F)c2)NC(=O)Cc2c[nH]c3ccc(O)cc23)c1 [Example 46, (S)-3-(2-(2-(3,5-difluorophenyl)-1-(2-(5-hydroxy-1H-indol-3-yl)acetamido)ethyl)pyridin-3-yl)-N-methylbenzamide] | > 53000 | 87 |
| NC(=O)c1cccc(-c2cccnc2[C@H](Cc2cc(F)cc(F)c2)NC(=O)Cn2cnc3ccccc32)c1 [Example 418, (S)-3-(2-(1-(2-(1H-benzo[d]imidazol-1-yl)acetamido)-2-(3,5-difluorophenyl)ethyl)pyridin-3-yl)benzamide] | > 53200 | 19 |
